Data on 30 compounds can be found in patent publication EP4722205A1, “HETEROCYCLIC COMPOUND AND NOXIOUS ARTHROPOD-CONTROLLING COMPOSITION CONTAINING SAME” (Sumitomo Chemical Company, Limited, priority 2023, dated 2024).

Format in all cases: in vivo
Assay [1] concerns cotton aphids (Aphis gossypii). The assay is described as follows: Test Method 1: foliar spray on cucumber seedling infested with cotton aphids (Formulation example 1). The note with it: 120 h, spray 10 mL/seedling, examined after 5 days, 25°C, read-out: controlling value.
Assay [2] relates to cotton worm (Spodoptera litura). Description: Test Method 3: sprayed cabbage leaves fed to second instar cotton worm. The note with it: 120 h, second instar larvae, after 5 days, 25°C, read-out: mortality of insects. How it is done:
(§1) The following tests in the test examples below were conducted at 25°C.
Cabbage (Brassicae oleracea) seedling (on the developmental stage of the second to third true leaf) is planted in a cup, and the diluted solutions are sprayed into the seedling at a ratio of 20 mL/seedling. Thereafter, the stem and leaf thereof are cut out and then is installed into a cup that is covered with filter paper on the bed of the cup. Five (5) cotton worm (Spodoptera litura) at the second instar larval stage are released into the cup. After 5 days, the number of the surviving insects is counted, and the mortality of insects is calculated by the following equation. [formula]

The test system of assay [3] is diamondback moth (Plutella xylostella). The assay is described as follows: Test Method 4: sprayed cabbage leaves fed to second instar diamondback moth. As to conditions: 120 h, second instar larvae, after 5 days, 25°C, read-out: mortality of insects. The procedure: Next, an efficacy of the present compound on controlling harmful arthropods is shown by Test examples. The following tests in the test examples below were conducted at 25°C.
Test compounds are made to a formulation according to a similar method to that described in the Formulation example 1, and thereto is added water containing 0.03 v/v% of Shindain (registered trademark) to prepare a diluted solution containing a prescribed concentration of the test compound.
Cabbage (Brassicae oleracea) seedling (on the developmental stage of the second to third true leaf) is planted in a cup, and the diluted solutions are sprayed into the seedling at a ratio of 20 mL/seedling. Thereafter, the stem and leaf thereof are cut out and then is installed into a cup that is covered with filter paper on the bed of the cup. Five (5) diamondback moth (Plutella xylostella) at the second instar larval stage are released into the cup. After 5 days, the number of the surviving insects is counted, and the mortality of insects is calculated by the following equation. [formula]

Assay [4] concerns cotton aphids (Aphis gossypii). The assay is described as follows: Test Method 11: foliar spray on cucumber seedling infested with cotton aphids (Formulation example 5). The note with it: 120 h, spray 10 mL/seedling, examined after 5 days, 25°C, read-out: controlling value.
In assay [5] the test system is diamondback moth (Plutella xylostella). The assay is described as follows: Test Method 10: sprayed cabbage seedling, third instar diamondback moth (Formulation example 5). As to conditions: 144 h, third instar larvae, after 6 days, 25°C, read-out: controlling value. The procedure: as §1
Cabbage (Brassicae oleracea) seedling (on the developmental stage of the third to fourth true leaf) is planted in a cup, and the diluted solutions are sprayed into the seedling at a ratio of 20 mL/seedling. Thereafter, ten (10) diamondback moth (Plutella xylostella) at the third instar larval stage are released onto the seedling. After 6 days, the number of the surviving insects is counted, and the mortality of insects is calculated by the following equation. [formula]

Assay [6] concerns cotton worm (Spodoptera litura). The assay is described as follows: Test Method 9: sprayed cabbage seedling, third instar cotton worm (Formulation example 5). As to conditions: 144 h, third instar larvae, after 6 days, 25°C, read-out: controlling value. How it is done: as §1
Cabbage (Brassicae oleracea) seedling (on the developmental stage of the third to fourth true leaf) is planted in a cup, and the diluted solutions are sprayed into the seedling at a ratio of 20 mL/seedling. Thereafter, ten (10) cotton worm (Spodoptera litura) at the third instar larval stage are released onto the seedling. After 6 days, the number of the surviving insects is counted, and the mortality of insects is calculated by the following equation. [formula]

On to `CCSc1c(C(=O)N(C)c2nc3ccc(F)cc3s2)nc2ccc(I)cn12` [compound 2], for which the mortality at 500 ppm in assay [1] is no less than 90%; in assay [2], no less than 80%; in assay [3], no less than 80%.
Take `CCSc1c(C(=O)N(C)c2nc3cc(F)ccc3s2)nc2ccc(I)cn12` [compound 3]: the mortality at 500 ppm in assay [2] and in assay [3] was no less than 80% each time.
Take `CCSc1c(C(=O)N(C)c2nc3cccc(F)c3o2)nc2ccc(I)cn12` [compound 18]: the mortality at 500 ppm in assay [1] was no less than 90%; in assay [3], no less than 80%.
As to `CCS(=O)(=O)c1c(C(=O)N(C)c2nc3cc(F)ccc3s2)nc2ccc(I)cn12` [compound 24], the mortality at 50 ppm in assay [4] was no less than 90%; in assay [5], no less than 80%; in assay [6], no less than 80%. Also, the results for the mortality at 200 ppm in assay [4], in assay [5] and in assay [6] were no less than 90%, no less than 80% and no less than 80%, respectively. For the same compound, the mortality at 500 ppm in assay [1] was no less than 90%; in assay [2], no less than 80%; in assay [3] it was no less than 80%.
For the compound `CCS(=O)(=O)c1c(C(=O)N(C)c2nc3cccc(Cl)c3s2)nc2ccc(I)cn12` [compound 27], the mortality at 50 ppm in assay [4] was no less than 90%; in assay [6], no less than 80%. Besides, the mortality at 200 ppm in assay [4] was no less than 90%; in assay [6], no less than 80%. Besides, the mortality at 500 ppm is no less than 90% in assay [1] and no less than 80% in assay [2].
Consider `CCS(=O)(=O)c1c(C(=O)N(C)c2nc3ccc(C)cc3s2)nc2ccc(I)cn12` [compound 32], for which the mortality at 500 ppm in assay [2] and in assay [3] was no less than 80% each time. For the same compound, the mortality at 50 ppm in assay [5] is no less than 80%. Also, in assay [5], the mortality at 200 ppm is no less than 80%.
Consider `CCS(=O)(=O)c1c(C(=O)N(C)c2nc3cccc(F)c3o2)nc2ccc(I)cn12` [compound 39], for which the mortality at 500 ppm in assay [3] was no less than 80%.
As for `CCSc1cccnc1C(=O)N(C)c1nc2cc(C(F)(F)F)ccc2s1` [compound 49], the mortality at 500 ppm in assay [2] and in assay [3] was no less than 80% each time.
Regarding `CCS(=O)(=O)c1cccnc1C(=O)N(C)c1nc2cc(C(F)(F)F)ccc2o1` [compound 54], the mortality at 500 ppm in assay [1] was no less than 90%; in assay [3] it was no less than 80%.
For `CCS(=O)(=O)c1cccnc1C(=O)N(C)c1nc2cc(C(F)(F)F)ccc2s1` [compound 55] the same measures were no less than 90% and no less than 80%.
For the compound `CCS(=O)(=O)c1cc(-c2ccc(C#N)cc2)cnc1C(=O)N(C)c1nc2cc(F)c(F)cc2s1` [compound 60], the mortality at 500 ppm in assay [3] was no less than 80%.
As for `CCSc1c(C(=O)N(C)c2nc3ccc(F)cc3n2C)nc2ccc(I)cn12` [compound 69], in assay [4], the mortality at 50 ppm was no less than 90% and the mortality at 200 ppm is no less than 90%. In assay [1], the mortality at 500 ppm was no less than 90%. The mortality at 500 ppm in assay [3] is no less than 80%.
As to `CCS(=O)(=O)c1c(C(=O)N(C)c2nc3ccc(F)nc3s2)nc2ccc(I)cn12` [compound 75], the mortality at 200 ppm in assay [4] was no less than 90%; in assay [5] it was no less than 80%; in assay [6], no less than 80%. Also, the mortality at 500 ppm in assay [1] was no less than 90%; in assay [2] it was no less than 80%; in assay [3], no less than 80%.
As for `CCS(=O)(=O)c1c(C(=O)N(C)c2nc3ccc(F)cc3n2C)nc2ccc(I)cn12` [compound 78], in assay [4], the mortality at 50 ppm is no less than 90%. For the same compound, the mortality at 200 ppm is no less than 90% in assay [4] and no less than 80% in assay [5]. Besides, the mortality at 500 ppm in assay [1] is no less than 90%; in assay [2], no less than 80%; in assay [3] it was no less than 80%.
Regarding `CCS(=O)(=O)c1c(C(=O)N(C)c2nc3cc(F)ccc3n2C)nc2ccc(I)cn12` [compound 79], in assay [4], the mortality at 50 ppm is no less than 90%. Besides, the mortality at 200 ppm in assay [4] is no less than 90%; in assay [5] it was no less than 80%; in assay [6], no less than 80%. The mortality at 500 ppm in assay [1] was no less than 90%; in assay [2], no less than 80%; in assay [3], no less than 80%.
For the compound `CCS(=O)(=O)c1c(C(=O)N(C)c2nc3cc(F)cc(F)c3s2)nc2ccc(I)cn12` [compound 80], the mortality at 500 ppm in assay [2] and in assay [3] was no less than 80% throughout. Further, the mortality at 200 ppm in assay [5] and in assay [6] was no less than 80% each time.
Take `CCS(=O)(=O)c1c(C(=O)N(C)c2nc3cc(F)c(Cl)cc3s2)nc2ccc(I)cn12` [compound 81]: in assay [3], the mortality at 500 ppm was no less than 80%.
In the case of `CCN(C(=O)c1nc2ccc(I)cn2c1S(=O)(=O)CC)c1nc2cc(F)c(F)cc2s1` [compound 96], the mortality at 50 ppm in assay [4] was no less than 90%. Also, in assay [4], the mortality at 200 ppm is no less than 90%. Besides, the mortality at 500 ppm in assay [1] was no less than 90%; in assay [2], no less than 80%; in assay [3] it was no less than 80%.
As for `CCS(=O)(=O)c1c(C(=O)N(CC#N)c2nc3cc(F)c(F)cc3s2)nc2ccc(I)cn12` [compound 98], in assay [3], the mortality at 500 ppm is no less than 80%.
The same measure, in the same setting: the figure for `C#CCN(C(=O)c1nc2ccc(I)cn2c1S(=O)(=O)CC)c1nc2cc(F)c(F)cc2s1` [compound 99] is no less than 80%.
`CCS(=O)(=O)c1c(C(=O)N(C)c2nc3cc(F)c(F)cc3s2)nc2ccc(C3CC3)cn12` [compound 102]: the values for the mortality at 50 ppm in assay [4], in assay [5] and in assay [6] were no less than 90%, no less than 80% and no less than 80%, respectively. For the same compound, the mortality at 200 ppm is no less than 90% in assay [4], no less than 80% in assay [5] and no less than 80% in assay [6]. Also, the results for the mortality at 500 ppm in assay [1], in assay [2] and in assay [3] were no less than 90%, no less than 80% and no less than 80%, respectively.
As for `CCS(=O)(=O)c1cc(-n2cc(Cl)cn2)cnc1C(=O)N(C)c1nc2cc(F)c(F)cc2s1` [compound 112], the mortality at 500 ppm in assay [2] and in assay [3] was no less than 80% each time. In addition, the mortality at 200 ppm in assay [5] and in assay [6] was no less than 80% throughout. In addition, the mortality at 50 ppm in assay [6] is no less than 80%.
With `CCS(=O)(=O)c1cccnc1C(=O)N(C)c1nc2cc(F)c(F)cc2s1` [compound 114], the mortality at 500 ppm in assay [2] and in assay [3] was no less than 80% each time.
Turning to `CCS(=O)(=O)c1cc(C(F)(F)F)ccc1C(=O)N(C)c1nc2cc(F)c(F)cc2s1` [compound 120], the mortality at 500 ppm in assay [2] and in assay [3] was no less than 80% each time. Further, the mortality at 50 ppm in assay [5] and in assay [6] was no less than 80% in each case. The mortality at 200 ppm in assay [5] and in assay [6] was no less than 80% in each case.
`CCCOc1cnc(C(=O)N(C)c2nc3cc(F)c(F)cc3s2)c(S(=O)(=O)CC)c1` [compound 126]: the mortality at 200 ppm in assay [4] was no less than 90%; in assay [5], no less than 80%; in assay [6], no less than 80%. Also, the mortality at 500 ppm in assay [2] and in assay [3] was no less than 80% throughout. Also, the mortality at 50 ppm in assay [6] is no less than 80%.
For `CCS(=O)(=O)c1ccc(-c2ccccn2)nc1C(=O)N(C)c1nc2cc(F)c(F)cc2s1` [compound 133], the mortality at 200 ppm in assay [4] was no less than 90%; in assay [5], no less than 80%; in assay [6] it was no less than 80%. In addition, the mortality at 500 ppm in assay [2] and in assay [3] was no less than 80% in each case. Also, the mortality at 50 ppm in assay [6] was no less than 80%.
Take `CCS(=O)(=O)c1ccc(Nc2ccc(C)cc2)nc1C(=O)N(C)c1nc2cc(F)c(F)cc2s1` [compound 137]: in assay [3], the mortality at 500 ppm was no less than 80%.
For the compound `CCS(=O)(=O)c1c(C(=O)N(C)c2nc3cc(F)c(F)cc3s2)nc(Br)n1C` [compound 140], the mortality at 500 ppm in assay [3] was no less than 80%. In addition, the mortality at 200 ppm in assay [5] is no less than 80%.
In the case of `CCS(=O)(=O)c1c(C(=O)N(C)c2nc3cc(F)c(F)cc3s2)nc(-c2cnn(C(F)F)c2)n1C` [compound 143], the mortality at 500 ppm in assay [2] and in assay [3] was no less than 80% in each case.
For `CCS(=O)(=O)c1c(C(=O)N(C)c2nc3cc(Cl)c(F)cc3s2)nn(C)c1C1CC1` [compound 145], the mortality at 500 ppm in assay [3] is no less than 80%. Further, the mortality at 200 ppm in assay [5] is no less than 80%.
